Measured values from patent US9695155B2, “Herbicidal substituted pyrimidinyloxy benzene compounds” (E. I. DU PONT DE NEMOURS AND COMPANY, priority 2013, dated 2017).

Tests used:
field poppy = assay: Test D preemergence; type: in vivo, Papaver rhoeas; settings: Papaver rhoeas, pre-emergence, scale 0-100, read-out: Plant response rating, Field Poppy
Summary of the method: (§1)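 Species were sown in silt loam for preemergence treatment, or grown in peat-based medium to the 1–4-leaf stage (2–18 cm) for postemergence sprays. Test chemicals were formulated in a non-phytotoxic solvent mixture with surfactant. After 7–21 days in a controlled environment, plants were rated visually against controls on a 0 (no effect) to 100 (complete control) scale.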

field bindweed = assay: Test E postemergence; type: in vivo, Convolvulus arvensis; settings: Convolvulus arvensis, post-emergence, read-out: Plant response rating, Field Bindweed
Summary of the method: (§2)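 Test chemicals formulated in a non-phytotoxic solvent mixture containing a surfactant were applied preemergence to seeds in silt loam soil or postemergence to plants at the 1- to 4-leaf stage in potting mix. After 14 to 21 days in a greenhouse, injury was visually rated against controls on a 0-100 scale (0 = no effect, 100 = complete control).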

wild poinsettia = assay: Test E postemergence; type: in vivo, Euphorbia heterophylla; settings: Euphorbia heterophylla, post-emergence; Postemergence, 250 g ai/ha, scale 0 to 100; read-out: Plant response rating, Poinsettia, Wild
Summary of the method: as §2

speedwell = assay: Test D postemergence; type: in vivo, Veronica persica; settings: Veronica persica, post-emergence, scale 0 to 100 (0 no effect, 100 complete control), read-out: Plant response rating, Speedwell
Summary of the method: as §1

winter barley = assay: Test D postemergence; type: in vivo, Hordeum vulgare; settings: Hordeum vulgare, post-emergence, Postemergence, scale 0 to 100 (0 no effect, 100 complete control), read-out: Plant response rating, Barley, Winter
Summary of the method: as §1

spring barley = assay: Test D postemergence; type: in vivo, Hordeum vulgare; settings: Hordeum vulgare, post-emergence, Postemergence, scale 0 to 100 (0 no effect, 100 complete control), read-out: Plant response rating, Barley, Spring
Summary of the method: as §1

Brazilian crabgrass = assay: Test E postemergence; type: in vivo, Digitaria horizontalis; settings: Digitaria horizontalis, post-emergence, read-out: Plant response rating, Crabgrass, Brazil
Summary of the method: as §2

chamomile = assay: Test D postemergence; type: in vivo, Matricaria inodora; settings: Tripleurospermum inodorum, post-emergence, scale 0 to 100 (0 no effect, 100 complete control), read-out: Plant response rating, Chamomile
Summary of the method: as §1

wild buckwheat = assay: Test D preemergence; type: in vivo, Polygonum convolvulus; settings: Fallopia convolvulus, pre-emergence, scale 0-100, read-out: Plant response rating, Buckwheat, Wild
Summary of the method: as §1

bromegrass, downy = assay: Test D postemergence; type: in vivo, Bromus tectorum; settings: Bromus tectorum, post-emergence, Postemergence, scale 0 to 100 (0 no effect, 100 complete control), read-out: Plant response rating, Bromegrass, Downy
Summary of the method: as §1

oilseed rape = assay: Test D postemergence; type: in vivo, Brassica napus; settings: Brassica napus, post-emergence, scale 0 to 100 (0 no effect, 100 complete control), read-out: Plant response rating, Oilseed Rape
Summary of the method: as §1

wild mustard = assay: Test D preemergence; type: in vivo, Sinapis arvensis; settings: Brassica, pre-emergence, scale 0-100, read-out: Plant response rating, Mustard, Wild
Summary of the method: as §1

windgrass = assay: Test D preemergence; type: in vivo, Apera spica-venti; settings: Apera spica-venti, pre-emergence
Summary of the method: as §1

[1] = Postemergence, 31 g ai/ha, scale 0 to 100
[2] = Postemergence, 62 g ai/ha, scale 0 to 100
[3] = Postemergence, 125 g ai/ha, scale 0 to 100
[4] = Postemergence, 250 g ai/ha, scale 0 to 100
[5] = postemergence, 16 g ai/ha, scale 0 to 100, 0 no effect, 100 complete control

N#Cc1cccc(Oc2ncc(Cl)cn2)c1-n1cc(C(F)(F)F)cn1 [Compound 58, 3-[(5-chloro-2-pyrimidinyl)oxy]-2-[4-(trifluoromethyl)-1H-pyrazol-1-yl]benzonitrile]
pest or weed control at 31 g/ha (field poppy; 31 g ai/ha): 95% | pest or weed control at 62 g/ha (field poppy; 62 g ai/ha): 100% | pest or weed control at 125 g/ha (field poppy; 125 g ai/ha): 100% | pest or weed control at 250 g/ha (field poppy; 250 g ai/ha): 100% | pest or weed control at 31 g/ha (field bindweed; [1]): 60% | pest or weed control at 62 g/ha (field bindweed; [2]): 70% | pest or weed control at 125 g/ha (field bindweed; [3]): 70% | pest or weed control at 250 g/ha (field bindweed; [4]): 80% | pest or weed control at 16 g/ha (field bindweed; [5]): 50% | pest or weed control at 250 g/ha (wild poinsettia): 90% | pest or weed control at 31 g/ha (speedwell; 31 g ai/ha): 100% | pest or weed control at 62 g/ha (speedwell; 62 g ai/ha): 100% | pest or weed control at 125 g/ha (speedwell; 125 g ai/ha): 100% | pest or weed control at 250 g/ha (speedwell; 250 g ai/ha): 100% | plant injury at 31 g/ha (winter barley; 31 g ai/ha): 10% | plant injury at 62 g/ha (winter barley; 62 g ai/ha): 15% | plant injury at 125 g/ha (winter barley; 125 g ai/ha): 25% | plant injury at 250 g/ha (winter barley; 250 g ai/ha): 50% | plant injury at 31 g/ha (spring barley; 31 g ai/ha): 15% | plant injury at 62 g/ha (spring barley; 62 g ai/ha): 20% | plant injury at 125 g/ha (spring barley; 125 g ai/ha): 30% | plant injury at 250 g/ha (spring barley; 250 g ai/ha): 40% | pest or weed control at 31 g/ha (Brazilian crabgrass; [1]): 20% | pest or weed control at 62 g/ha (Brazilian crabgrass; [2]): 40% | pest or weed control at 125 g/ha (Brazilian crabgrass; [3]): 55% | pest or weed control at 250 g/ha (Brazilian crabgrass; [4]): 75% | pest or weed control at 16 g/ha (Brazilian crabgrass; [5]): 10% | pest or weed control at 31 g/ha (chamomile; 31 g ai/ha): 10% | pest or weed control at 62 g/ha (chamomile; 62 g ai/ha): 25% | pest or weed control at 125 g/ha (chamomile; 125 g ai/ha): 35% | pest or weed control at 250 g/ha (chamomile; 250 g ai/ha): 35% | pest or weed control at 31 g/ha (wild buckwheat; 31 g ai/ha): 100% | pest or weed control at 62 g/ha (wild buckwheat; 62 g ai/ha): 100% | pest or weed control at 125 g/ha (wild buckwheat; 125 g ai/ha): 100% | pest or weed control at 250 g/ha (wild buckwheat; 250 g ai/ha): 100% | pest or weed control at 31 g/ha (bromegrass, downy; 31 g ai/ha): 25% | pest or weed control at 62 g/ha (bromegrass, downy; 62 g ai/ha): 30% | pest or weed control at 125 g/ha (bromegrass, downy; 125 g ai/ha): 35% | pest or weed control at 250 g/ha (bromegrass, downy; 250 g ai/ha): 35% | plant injury at 31 g/ha (oilseed rape; 31 g ai/ha): 55% | plant injury at 62 g/ha (oilseed rape; 62 g ai/ha): 85% | plant injury at 125 g/ha (oilseed rape; 125 g ai/ha): 95% | plant injury at 250 g/ha (oilseed rape; 250 g ai/ha): 95% | pest or weed control at 31 g/ha (wild mustard; 31 g ai/ha): 90% | pest or weed control at 62 g/ha (wild mustard; 62 g ai/ha): 100% | pest or weed control at 125 g/ha (wild mustard; 125 g ai/ha): 100% | pest or weed control at 250 g/ha (wild mustard; 250 g ai/ha): 100% | pest or weed control at 31 g/ha (windgrass; 31 g ai/ha, scale 0 (no effect) to 100 (complete control), read-out: Plant response rating, Windgrass): 100% | pest or weed control at 62 g/ha (windgrass; 62 g ai/ha, scale 0-100, read-out: Plant response rating, Windgrass): 100% | pest or weed control at 125 g/ha (windgrass; 125 g ai/ha, scale 0-100, read-out: Plant response rating, Windgrass): 100% | pest or weed control at 250 g/ha (windgrass; 250 g ai/ha, scale 0-100, read-out: Plant response rating, Windgrass): 100%
